Tested on: severe or critical COVID-19 infection
Experiment: Randomized, double-blind, placebo-controlled study of tradipitant in hospitalized patients with COVID-19 pneumonia (interim analysis, ITT)
Assay type: in vivo
Settings: ITT; for Hazard ratio (95% CI), responder as improvement of 2 or more points: tradipitant vs placebo, Cox model, >1 benefit for tradipitant
[1] = Day 7, ordinal score at baseline 2, tradipitant N = 4
[2] = Day 7, ordinal score at baseline 3, tradipitant N = 13
[3] = Day 7, ordinal score at baseline 4, tradipitant N = 9
[4] = Day 7, overall, tradipitant N = 28
[5] = Day 28, ordinal score at baseline 2, tradipitant N = 4
[6] = Day 28, ordinal score at baseline 3, tradipitant N = 13
[7] = Day 28, ordinal score at baseline 4, tradipitant N = 9
[8] = Day 28, overall, tradipitant N = 28
[9] = ordinal score at baseline 2, tradipitant N = 4
[10] = ordinal score at baseline 3, tradipitant N = 13

In the case of O=C(c1ccccc1Cl)c1cccnc1-c1nnn(Cc2cc(C(F)(F)F)cc(C(F)(F)F)c2)c1-c1ccncc1 [Tradipitant], the “Median time to responder” value [1] is reported as 4 days, the “Mortality, KM estimate” value [1] is reported as 25.0% and the “No. of responders (improvement of 2 or more points on 7 point ordinal scale)” value (“No. of responders” for short) [1] is reported as 3. For the same molecule, the “Mortality, KM estimate” value [2] was 0.0%, the “No. of responders” value [2] was 2 and the “Median time to responder” value [3] was 4 days. For the same molecule, the “Mortality, KM estimate” value [3] was 25.0%, the “No. of responders” value [3] was 6 and the “Mortality, KM estimate” value [4] was 9.8%. For the same molecule, the “No. of responders” value [4] was 13, the “Hazard ratio (95% CI), responder as improvement of 2 or more points” value (Day 7, overall) was 2.55 and the “Median time to responder” value [5] was 4 days. For the same molecule, the “Mortality, KM estimate” value [5] was 50.0%, the “No. of responders” value [5] was 3 and the “Median time to responder” value [6] was 27 days. The “Mortality, KM estimate” value [6] was 9.1%, the “No. of responders” value [6] was 4 and the “Median time to responder” value [7] was 4 days. The “Mortality, KM estimate” value [7] was 25.0%, the “No. of responders” value [7] was 7 and the “Median time to responder” value [8] was 10 days. The “Mortality, KM estimate” value [8] was 20.4%, the “No. of responders” value [8] was 16 and the “Hazard ratio (95% CI), responder as improvement of 2 or more points” value (Day 28, overall) was 1.55. For the same molecule, the “No. of deaths by day 7” value [9] was 1, the “No. of deaths by day 28” value [9] was 2 and the “Ordinal Score at Day 7 = 1 (Death), % of patients” value [9] was “(25.0) %”. For the same molecule, the “Ordinal Score at Day 7 = 1 (Death), no. of patients” value [9] was 1, the “Ordinal Score at Day 7 = 2 (Hospitalized, on invasive mechanical ventilation or ECMO), % of patients” value [9] was “(25.0) %” and the “Ordinal Score at Day 7 = 2 (Hospitalized, on invasive mechanical ventilation or ECMO), no. of patients” value [9] was 1. The “Ordinal Score at Day 7 = 3 (Hospitalized, on non-invasive ventilation or high flow oxygen devices), % of patients” value [9] was “(0.0) %”, the “Ordinal Score at Day 7 = 3 (Hospitalized, on non-invasive ventilation or high flow oxygen devices), no. of patients” value [9] was 0 and the “Ordinal Score at Day 7 = 4 (Hospitalized, requiring supplemental oxygen), % of patients” value [9] was “(25.0) %”. For the same molecule, the “Ordinal Score at Day 7 = 4 (Hospitalized, requiring supplemental oxygen), no. of patients” value [9] was 1, the “Ordinal Score at Day 7 = 5 (Hospitalized, not requiring supplemental oxygen), % of patients” value [9] was “(25.0) %” and the “Ordinal Score at Day 7 = 5 (Hospitalized, not requiring supplemental oxygen), no. of patients” value [9] was 1. For the same molecule, the “Ordinal Score at Day 7 = 7 (Not hospitalized), % of patients” value [9] was “(0.0) %”, the “Ordinal Score at Day 7 = 7 (Not hospitalized), no. of patients” value [9] was 0 and the “Ordinal Score at Day 28 = 1 (Death), % of patients” value [9] was “(50.0) %”. The “Ordinal Score at Day 28 = 1 (Death), no. of patients” value [9] was 2, the “Ordinal Score at Day 28 = 2 (Hospitalized, on invasive mechanical ventilation or ECMO), % of patients” value [9] was “(0.0) %” and the “Ordinal Score at Day 28 = 2 (Hospitalized, on invasive mechanical ventilation or ECMO), no. of patients” value [9] was 0. For the same molecule, the “Ordinal Score at Day 28 = 3 (Hospitalized, on non-invasive ventilation or high flow oxygen devices), % of patients” value [9] was “(0.0) %”, the “Ordinal Score at Day 28 = 3 (Hospitalized, on non-invasive ventilation or high flow oxygen devices), no. of patients” value [9] was 0 and the “Ordinal Score at Day 28 = 4 (Hospitalized, requiring supplemental oxygen), % of patients” value [9] was “(0.0) %”. The “Ordinal Score at Day 28 = 4 (Hospitalized, requiring supplemental oxygen), no. of patients” value [9] was 0, the “Ordinal Score at Day 28 = 7 (Not hospitalized), % of patients” value [9] was “(50.0) %” and the “Ordinal Score at Day 28 = 7 (Not hospitalized), no. of patients” value [9] was 2. The “No. of deaths by day 7” value [10] was 0, the “No. of deaths by day 28” value [10] was 1 and the “Ordinal Score at Day 7 = 1 (Death), % of patients” value [10] was “(0.0) %”. The “Ordinal Score at Day 7 = 1 (Death), no. of patients” value [10] was 0, the “Ordinal Score at Day 7 = 2 (Hospitalized, on invasive mechanical ventilation or ECMO), % of patients” value [10] was “(61.5) %” and the “Ordinal Score at Day 7 = 2 (Hospitalized, on invasive mechanical ventilation or ECMO), no. of patients” value [10] was 8. The “Ordinal Score at Day 7 = 3 (Hospitalized, on non-invasive ventilation or high flow oxygen devices), % of patients” value [10] was “(23.1) %”, the “Ordinal Score at Day 7 = 3 (Hospitalized, on non-invasive ventilation or high flow oxygen devices), no. of patients” value [10] was 3 and the “Ordinal Score at Day 7 = 4 (Hospitalized, requiring supplemental oxygen), % of patients” value [10] was “(0.0) %”. For the same molecule, the “Ordinal Score at Day 7 = 4 (Hospitalized, requiring supplemental oxygen), no. of patients” value [10] was 0, the “Ordinal Score at Day 7 = 5 (Hospitalized, not requiring supplemental oxygen), % of patients” value [10] was “(7.7) %” and the “Ordinal Score at Day 7 = 5 (Hospitalized, not requiring supplemental oxygen), no. of patients” value [10] was 1. The “Ordinal Score at Day 7 = 7 (Not hospitalized), % of patients” value [10] was “(7.7) %”.

Reference: US20240350469A1, “TREATMENT OF LOWER RESPIRATORY TRACT INFECTION WITH TRADIPITANT” (Vanda Pharmaceuticals Inc., priority 2021, published 2024)
